Patent US8569281B2, “Compounds and their administration for treating a neurodegenerative disease as well as a method for identifying a compound capable of inhibiting a kinase, such as LRRK” (Medical Research Council Technology, priority 2010, dated 2013)

The compounds below were run against LRRK2 (Homo sapiens (Human), UniProt Q5S007) (assay: In Vitro LRRK2 Assay (LabChip 3000, fluorescently-labeled peptide substrate)). Conditions: ATP 130 μM, substrate 1 μM, 2 hours, ambient temperature; LRRK2 variant not given; read-out: Ki (μM), affinity values for LRRK2.
Sequence of LRRK2 (Q5S007 whole entry G2019S): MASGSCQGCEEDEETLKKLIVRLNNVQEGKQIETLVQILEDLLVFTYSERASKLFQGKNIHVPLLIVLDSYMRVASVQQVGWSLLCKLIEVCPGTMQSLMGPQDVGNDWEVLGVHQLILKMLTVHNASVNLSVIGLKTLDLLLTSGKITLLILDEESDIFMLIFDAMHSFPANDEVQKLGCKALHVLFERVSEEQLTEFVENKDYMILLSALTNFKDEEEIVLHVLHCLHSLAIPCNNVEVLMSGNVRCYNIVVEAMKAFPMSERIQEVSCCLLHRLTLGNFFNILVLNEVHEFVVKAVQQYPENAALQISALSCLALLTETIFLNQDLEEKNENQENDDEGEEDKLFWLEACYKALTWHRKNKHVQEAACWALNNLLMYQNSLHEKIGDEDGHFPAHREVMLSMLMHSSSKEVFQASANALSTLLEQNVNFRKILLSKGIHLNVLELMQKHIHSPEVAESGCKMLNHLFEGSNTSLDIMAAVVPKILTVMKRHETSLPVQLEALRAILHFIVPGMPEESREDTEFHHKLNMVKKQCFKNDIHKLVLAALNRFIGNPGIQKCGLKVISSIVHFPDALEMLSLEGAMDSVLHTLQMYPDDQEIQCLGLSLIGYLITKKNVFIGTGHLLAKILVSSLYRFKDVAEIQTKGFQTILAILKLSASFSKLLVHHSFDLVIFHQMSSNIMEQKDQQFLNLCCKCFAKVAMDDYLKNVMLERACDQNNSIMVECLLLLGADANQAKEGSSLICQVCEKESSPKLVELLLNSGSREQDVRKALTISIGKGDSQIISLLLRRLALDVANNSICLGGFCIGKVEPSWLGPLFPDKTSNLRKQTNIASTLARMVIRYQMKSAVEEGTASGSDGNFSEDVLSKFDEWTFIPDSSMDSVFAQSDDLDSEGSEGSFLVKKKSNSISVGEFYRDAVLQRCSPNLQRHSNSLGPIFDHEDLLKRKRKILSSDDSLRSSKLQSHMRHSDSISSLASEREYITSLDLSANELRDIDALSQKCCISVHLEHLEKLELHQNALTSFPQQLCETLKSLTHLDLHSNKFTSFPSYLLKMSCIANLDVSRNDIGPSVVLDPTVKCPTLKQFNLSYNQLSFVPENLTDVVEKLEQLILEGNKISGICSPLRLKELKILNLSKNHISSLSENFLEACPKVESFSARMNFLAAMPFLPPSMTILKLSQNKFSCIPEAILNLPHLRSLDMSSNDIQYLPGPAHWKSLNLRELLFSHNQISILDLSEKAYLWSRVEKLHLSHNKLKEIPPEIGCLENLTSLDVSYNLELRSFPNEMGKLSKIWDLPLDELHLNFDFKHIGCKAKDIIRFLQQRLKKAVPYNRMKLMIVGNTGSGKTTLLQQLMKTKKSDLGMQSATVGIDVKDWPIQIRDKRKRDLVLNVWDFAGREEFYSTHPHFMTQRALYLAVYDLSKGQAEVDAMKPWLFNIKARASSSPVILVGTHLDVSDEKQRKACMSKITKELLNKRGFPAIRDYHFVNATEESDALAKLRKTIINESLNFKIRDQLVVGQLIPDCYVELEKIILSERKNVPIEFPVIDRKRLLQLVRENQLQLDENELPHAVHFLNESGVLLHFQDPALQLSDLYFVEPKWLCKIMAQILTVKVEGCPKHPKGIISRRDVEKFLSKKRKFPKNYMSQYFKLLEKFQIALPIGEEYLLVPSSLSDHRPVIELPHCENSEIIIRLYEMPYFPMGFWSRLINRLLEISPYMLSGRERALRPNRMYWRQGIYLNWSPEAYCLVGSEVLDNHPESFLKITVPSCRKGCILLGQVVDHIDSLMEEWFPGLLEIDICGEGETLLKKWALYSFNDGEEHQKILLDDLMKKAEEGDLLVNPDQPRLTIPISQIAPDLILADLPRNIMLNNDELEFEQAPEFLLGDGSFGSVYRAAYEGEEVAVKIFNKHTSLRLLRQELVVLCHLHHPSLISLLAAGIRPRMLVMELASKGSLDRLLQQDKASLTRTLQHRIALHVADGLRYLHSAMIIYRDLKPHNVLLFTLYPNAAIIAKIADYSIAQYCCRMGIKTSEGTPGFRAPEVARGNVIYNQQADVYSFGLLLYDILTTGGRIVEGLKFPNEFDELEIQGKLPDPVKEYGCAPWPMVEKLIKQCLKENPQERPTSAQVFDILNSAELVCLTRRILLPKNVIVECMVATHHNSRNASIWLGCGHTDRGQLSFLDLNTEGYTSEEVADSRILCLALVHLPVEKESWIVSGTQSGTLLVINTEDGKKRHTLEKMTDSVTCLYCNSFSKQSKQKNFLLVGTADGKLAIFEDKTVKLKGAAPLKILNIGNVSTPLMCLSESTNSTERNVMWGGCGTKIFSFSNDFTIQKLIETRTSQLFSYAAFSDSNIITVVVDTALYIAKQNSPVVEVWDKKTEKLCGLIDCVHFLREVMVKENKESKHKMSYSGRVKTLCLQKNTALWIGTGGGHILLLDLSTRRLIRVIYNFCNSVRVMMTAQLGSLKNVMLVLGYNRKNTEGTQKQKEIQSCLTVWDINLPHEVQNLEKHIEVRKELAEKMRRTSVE
Assay type: biochemical

Row | Compound | Ki [µM]
1 | O=C1OCCN1CCOc1nccc2[nH]nc(-c3ccnc(N4CCOCC4)c3)c12 [Example 179, 3-(2-(3-(2-morpholinopyridin-4-yl)-1H-pyrazolo[4,3-c]pyridin-4-yloxy)ethyl)oxazolidin-2-one] | 0.354
2 | COc1nccc2[nH]nc(-c3cnn(C4COC4)c3)c12 [Example 86] | 0.031
3 | 3-(1-((2,2-difluorocyclopropyl)methyl)-1H-benzo[d]imidazol-5-yl)-4-(tetrahydro-2H-pyran-4-yloxy)-1H-pyrazolo[4,3-c]pyridine [Example 127] | 0.023
4 | Cn1cnc2cc(-c3n[nH]c4ccnc(OC5CCOCC5)c34)ccc21 [Example 145, 3-(1-methyl-1H-benzo[d]imidazol-5-yl)-4-(tetrahydro-2H-pyran-4-yloxy)-1H-pyrazolo[4,3-c]pyridine] | 0.036
5 | c1cc2n[nH]c(C3CC3)c2c(OC2CCOCC2)n1 [Example 28, 3-Cyclopropyl-4-(tetrahydro-2H-pyran-4-yloxy)-1H-pyrazolo[4,3-c]pyridine] | 0.035
6 | COC(=O)c1[nH]nc2ccnc(NC3CCOCC3)c12 [Example 185, methyl 4-(tetrahydro-2H-pyran-4-ylamino)-1H-pyrazolo[4,3-c]pyridine-3-carboxylate] | 0.1
7 | N#Cc1cncc(-c2n[nH]c3ccnc(OC4CCOCC4)c23)c1 [Example 156] | 0.172
8 | O=C(c1cc(-c2n[nH]c3ccnc(OC4CCOCC4)c23)ccn1)N1CCOCC1 [Example 73, Morpholino(4-(4-(tetrahydro-2H-pyran-4-yloxy)-1H-pyrazolo[4,3-c]pyridin-3-yl)pyridin-2-yl)methanone] | 0.221

Further compounds by falling Ki, results first:

Row | Ki [µM] | Compound
9 | 0.031 | FC(F)(F)COc1nccc2[nH]nc(-c3ccnc(N4CCOCC4)c3)c12 [Example 74, 4-(4-(4-(2,2,2-Trifluoroethoxy)-1H-pyrazolo[4,3-c]pyridin-3-yl)pyridin-2-yl)morpholine]
10 | 0.027 | c1cc(-c2n[nH]c3ccnc(NC4CCOCC4)c23)cc(N2CCOCC2)n1 [Example 9, 3-[2-(Morpholin-4-yl)pyridin-4-yl]-N-(tetrahydro-2H-pyran-4-yl)-1H-pyrazolo[4,3-c]pyridin-4-amine]
11 | 0.025 | CNC(=O)c1cccc(-c2n[nH]c3ccnc(OC4CCOCC4)c23)c1 [Example 160, N-Methyl-3-(4-(tetrahydro-2H-pyran-4-yloxy)-1H-pyrazolo[4,3-c]pyridin-3-yl)benzamide]
12 | 0.025 | COc1nccc2[nH]nc(-c3cnn(CC(F)(F)F)c3)c12 [Example 88, 4-Methoxy-3-(1-(2,2,2-trifluoroethyl)-1H-pyrazol-4-yl)-1H-pyrazolo[4,3-u]pyridine]
13 | 0.024 | c1cc2n[nH]c(C3CC3)c2c(OC2CCCCC2)n1 [Example 26, 4-(Cyclohexyloxy)-3-cyclopropyl-1H-pyrazolo[4,3-c]pyridine]
14 | 0.023 | COCCOc1nccc2[nH]nc(-c3ccnc(N4CCOCC4)c3)c12 [Example 178, 4-(4-(4-(2-methoxyethoxy)-1H-pyrazolo[4,3-c]pyridin-3-yl)pyridin-2-yl) morpholine]
15 | 0.019 | CC(C)Oc1nccc2[nH]nc(-c3cc(C(=O)N4CCOCC4)n(C(C)C)c3)c12 [Example 57, (4-(4-Isopropoxy-1H-pyrazolo[4,3-c]pyridin-3-yl)-1-isopropyl-1H-pyrrol-2-yl)(morpholino)methanone]
16 | 0.012 | c1cc(-c2n[nH]c3ccnc(OC4CCOCC4)c23)cc(-c2cn[nH]c2)n1 [Example 204, 3-(2-(1H-pyrazol-4-yl)pyridin-4-yl)-4-(tetrahydro-2H-pyran-4-yloxy)-1H-pyrazolo[4,3-c]pyridine]
17 | 0.006 | CC(C)Oc1nccc2[nH]nc(-c3cc(C(=O)N4CCCC4)n(C(C)C)c3)c12 [Example 216, [4-(4-Isopropoxy-1H-pyrazolo[4,3-c]pyridin-3-yl)-1-isopropyl-1H-pyrrol-2-yl]-pyrrolidin-1-yl-methanone]
18 | 0.005 | Cc1cc(-c2n[nH]c3ccnc(OC4CCOCC4)c23)cc(C)n1 [Example 100, 3-(2,6-Dimethylpyridin-4-yl)-4-(tetrahydro-2H-pyran-4-yloxy)-1H-pyrazolo[4,3-c]pyridine]
